Reference: US20150265644A1, “THERAPEUTIC METHODS AND COMPOSITIONS FOR TREATING DIABETES UTILIZING DITERPENOID COMPOUNDS” (Orient Europharma Co., Ltd., priority 2014, published 2015)

How the values were obtained:
[1] = test system: human hepatocellular carcinoma cell line Hep3B; assay: Glycogen content assay in Hep3B cells; format: cell-based; conditions: 30 minutes
Procedure: The C2C12 skeletal muscle cells were cultured in Dulbecco's modified Eagle's medium (DMEM; Gibco/Invitrogen, Carlsbad, Calif.), and the human hepatocellular carcinoma cell line, Hl-ep3B, was cultured in Roswell Park Memorial Institute medium 1640 (RPMI 1640 medium; Gibco/Invitrogen, Carlsbad, Calif.). Cells were cultured at 37° C. in the humidified incubator supplied with 5% CO2. Culture mediums were supplemented with 4.5 mgmL^−1 glucose, penicillin 100 IUmL^−1, streptomycin 100 μgmL^−1 and 10% fetal bovine serum (Gibco/Invitrogen, Carlsbad, Calif.). Only C2C12 cells were then switched to 2% horse serum for 3 days after reaching the 70% confluence. Myotubes formation was achieved after 4 days of incubation, and the cells were used for subsequent experiments. Culture mediums were replaced by serum free DMEM or RPMI for 24 h before experiments (see e.g., procedure described in Sultan et al., 2006).
C2C12 and Hep3B cells were treated with 1 nM insulin, 100 μM metformin, and the assigned concentration of borapetoside A for 30 minutes. To develop the insulin resistance state of cells, C2C12 cells were incubated with IL-6 at 20 ngmL^−1 for 1 hour. Later, the cells were treated with 1 nM insulin, 100 μM metformin, and the assigned concentration of borapetoside A for 30 minutes. After the assigned treatment, cells were washed twice with phosphate buffered saline (PBS). Glycogen content was measured as previously described, with some modifications (see e.g., Savage et al., 2008). The protein concentrations of the cell lysates were determined by using Pierce BCA Protein Assay Kit (Thermo-Scientific, Rockford, Ill.). The glycogen content of each sample was normalized by total protein.

phospho-Akt (Ser^473) = assay: Western blot of liver, phospho-Akt; format: in vivo; conditions: mice with type 1 DM, 10 mgkg^−1 i.p. twice a day for 7 days
Procedure: (§1) After three days of acclimatization, the mice had free access to a standard rodent chow (normal mice), a standard rodent chow after single 250 mgkg^−1 streptozotocin (STZ) intraperitoneal injection (TIDM mice), and a fat-rich chow diet and fructose-sweetened water (T2DM mice) for 4 weeks. The induction of Type 1 DM was assessed and confirmed when the mice had plasma glucose levels ≧350 mgdL^−1, accompanied with polyuria, hyperphagia and decreased body weight. The induction Type 2 DM in the mice was assessed by measuring fasting plasma glucose levels and confirmed when plasma glucose level was ≧150 mgdL^−1 after the 4-week induction. […]
(§2) Western blot analysis was carried out by known methods with a slight modification. […] After centrifuging the homogenates at 10,000 g for 30 minutes, the protein concentrations were determined by using a BCA Protein Assay Kit (Pierce Biotechnology, Rockford, Ill.). […] The membranes were analysed by using the antibodies against phospho-insulin receptor β (IRβ) (Tyr^1345), phospho-Akt (Ser^473), phosphor-AS160 (Thr^642), AS160 (Cell Signaling Technology, Beverly, Mass.), IRβ, Akt, β-Actin (Santa Cruz Biotechnology, Santa Cruz, Calif.), GLUT2 (Abcam, Cambridge, UK), and PEPCK (a gift from Professor D K Granner), respectively. […] The intensity of each band was quantified with ImageQuant.

[2] = test system: phospho-insulin receptor β (IRβ) (Tyr^1345); assay: Western blot of liver, phospho-insulin receptor; format: in vivo; conditions: mice with type 1 DM, 10 mgkg^−1 i.p. twice a day for 7 days
Procedure: as §1, §2

GLUT2 = assay: Western blot of liver, GLUT2 expression; format: in vivo; conditions: mice with type 1 DM, 10 mgkg^−1 i.p. twice a day for 7 days
Procedure: as §1, §2

PEPCK = assay: Western blot of liver, PEPCK expression; format: in vivo; conditions: mice with type 1 DM, 10 mgkg^−1 i.p. twice a day for 7 days
Procedure: as §1, §2

C[C@@]12C[C@@H](c3ccoc3)OC(=O)[C@@H]1C[C@@H]1OC(=O)[C@@]3(O)[C@@H](O[C@@H]4O[C@H](CO)[C@@H](O)[C@H](O)[C@H]4O)CC[C@@H]2[C@@]13C [borapetoside A]
fold increase of glycogen content ([1]; 10^−5 mol/L): 1.54±0.11 fold
fold increase of glycogen content ([1]; 10^−6 mol/L): 1.39±0.12 fold
fold increase of glycogen content ([1]; 10^−7 mol/L): 1.46±0.05 fold
phosphorylated Akt in liver (phospho-Akt (Ser^473)): increased
phosphorylated IR in liver [2]: increased
expression of GLUT2 in liver (GLUT2): increased
PEPCK expression in liver (PEPCK): significant decrease
